Source: patent publication US9090571B2, “Meglumine salt of 6-fluoro-3-hydroxy-2-pyrazine carboxamide” (TOYAMA CHEMICAL CO., LTD., priority 2010, dated 2015)

Experiment: Solubility in water (statement)
Assay type: physicochemical

| Structure (SMILES) | solubility in water |
| --- | --- |
| CNC[C@H](O)[C@@H](O)[C@H](O)[C@H](O)CO.NC(=O)c1nc(F)cnc1O [Salt A, meglumine salt of 6-fluoro-3-hydroxy-2-pyrazinecarboxamide] | high |
| NC(=O)c1nc(F)c[nH]c1=O [Compound A, 6-fluoro-3-hydroxy-2-pyrazinecarboxamide] | low solubility in water |
